Test results taken from US20260007131A1, “HERBICIDAL COMPOSITION CONTAINING DIFLUOROBUTENOIC ACID AMIDE COMPOUND” (ISHIHARA SANGYO KAISHA, LTD., priority 2022, published 2026).

How the values were obtained:
Format in all cases: in vivo
[1] = test system: redroot pigweed (Amaranthus retroflexus); assay: Herbicidal effect on redroot pigweed (soil treatment)
Text: (§1) Upland soil was put into a 1/300,000 hectare (ha) pot, seeds of barnyardgrass (Echinochloa crus-galli) were sown, and about 1.5 cm of cover soil was put. […] On the next day after sowing, the spray solution was sprayed with a small sprayer for soil treatment.
(§2) Upland soil was put into a 1/300,000 hectare (ha) pot, seeds of barnyardgrass (Echinochloa crus-galli), crabgrass (Digitaria sanguinalis), green foxtail (Setaria viridis), Italian ryegrass (Lolium multiflorum), redroot pigweed (Amaranthus retroflexus) and common chickweed (Stellaria media) were sown, and about 1.5 cm of cover soil was put.

[2] = test system: crabgrass (Digitaria sanguinalis); assay: Herbicidal effect on crabgrass (soil treatment)
Text: as §1, §2

[3] = test system: common chickweed (Stellaria media); assay: Herbicidal effect on common chickweed (foliar treatment); conditions: Comparative Test 1, common chickweed, read-out: Growth inhibition rate
Experimental: (§3) Upland soil was put into a 1/300,000 hectare (ha) pot, seeds of barnyardgrass (Echinochloa crus-galli) were sown, and about 1.5 cm of cover soil was put. The barnyardgrass was grown for 10 days in a greenhouse until it reached a predetermined leaf stage. […] The spray solution was sprayed over the grown barnyardgrass with a small sprayer for foliar treatment.
(§4) Upland soil was put into a 1/300,000 hectare (ha) pot, seeds of barnyardgrass (Echinochloa crus-galli), crabgrass (Digitaria sanguinalis), green foxtail (Setaria viridis), wild oat (Avena fatua), Italian ryegrass (Lolium multiflorum), foxtail shortawn (Alopecurus aequalis), annual bluegrass (Poa annua), redroot pigweed (Amaranthus retroflexus), common chickweed (Stellaria media) common lambsquarters (Chenopodium album) and black nightshade (Solanum nigrum) were sown, and about 1.5 cm of cover soil was put. The plants were grown for 10 days in a greenhouse until they reached a predetermined leaf stage.

[4] = test system: Italian ryegrass (Lolium multiflorum); assay: Herbicidal effect on Italian ryegrass (foliar treatment); conditions: Comparative Test 1, Italian ryegrass, read-out: Growth inhibition rate
Experimental: as §3, §4

[5] = test system: green foxtail (Setaria viridis); assay: Herbicidal effect on green foxtail (foliar treatment); conditions: Comparative Test 1, green foxtail, read-out: Growth inhibition rate
Experimental: as §3, §4

[6] = test system: common chickweed (Stellaria media); assay: Comparative Test 2: herbicidal effect on common chickweed (soil treatment); conditions: Comparative Test 2, common chickweed, read-out: Growth inhibition rate
Text: Upland soil was put into a 1/300,000 hectare (ha) pot, seeds of barnyardgrass (Echinochloa crus-galli), crabgrass (Digitaria sanguinalis), green foxtail (Setaria viridis), Italian ryegrass (Lolium multiflorum), redroot pigweed (Amaranthus retroflexus) and common chickweed (Stellaria media) were sown, and about 1.5 cm of cover soil was put. The Invention Compound (Aa-1-1, Aa-9-2) or the compound 4b described in Patent Document 1 was weighed to achieve a predetermined active ingredient dose, dissolved in acetone (containing 0.5 vol % of surfactant (TritonX-100: manufactured by Kishida Chemical Co., Ltd.)) or dimethyl sulfoxide and diluted with water (containing 0.1 vol % of agricultural spreader (Surfactant WK: manufactured by MARUWA Biochemical Co., Ltd.) in an amount corresponding to 1,000 liter per hectare, to prepare each spray solution. On the next day after sowing, each spray solution was sprayed with a small sprayer for soil treatment. On the 14th day after the soil treatment, the state of growth of each plant was visually observed, and the herbicidal effect was evaluated in accordance with the growth inhibition rate (%) of from 0 (equivalent to the non-treated area) to 100 (complete kill).

[7] = test system: foxtail shortawn (Alopecurus aequalis); assay: Herbicidal effect on foxtail shortawn (foliar treatment); conditions: Comparative Test 1, foxtail shortawn, read-out: Growth inhibition rate
Experimental: as §3, §4

[8] = test system: common lambsquarters (Chenopodium album); assay: Herbicidal effect on common lambsquarters (foliar treatment); conditions: Comparative Test 1, common lambsquarters, read-out: Growth inhibition rate
Experimental: as §3, §4

[9] = test system: barnyardgrass (Echinochloa crus-galli); assay: Herbicidal effect on barnyardgrass (soil treatment); conditions: Comparative Test 2, barnyardgrass, read-out: Growth inhibition rate
Text: as §1, §2

[10] = test system: redroot pigweed (Amaranthus retroflexus); assay: Herbicidal effect on redroot pigweed (foliar treatment); conditions: Comparative Test 1, redroot pigweed, read-out: Growth inhibition rate
Experimental: as §3, §4

[11] = test system: green foxtail (Setaria viridis); assay: Herbicidal effect on green foxtail (soil treatment); conditions: Comparative Test 2, green foxtail, read-out: Growth inhibition rate
Text: as §1, §2

[12] = test system: crabgrass (Digitaria sanguinalis); assay: Herbicidal effect on crabgrass (foliar treatment); conditions: Comparative Test 1, crabgrass, read-out: Growth inhibition rate
Experimental: as §3, §4

[13] = test system: annual bluegrass (Poa annua); assay: Herbicidal effect on annual bluegrass (foliar treatment); conditions: Comparative Test 1, annual bluegrass, read-out: Growth inhibition rate
Experimental: as §3, §4

[14] = test system: barnyardgrass (Echinochloa crus-galli); assay: Herbicidal effect on barnyardgrass (foliar treatment); conditions: Comparative Test 1, barnyardgrass, read-out: Growth inhibition rate
Experimental: as §3, §4

[15] = test system: Italian ryegrass (Lolium multiflorum); assay: Herbicidal effect on Italian ryegrass (soil treatment)
Text: as §1, §2

[16] = test system: black nightshade (Solanum nigrum); assay: Herbicidal effect on black nightshade (foliar treatment); conditions: Comparative Test 1, black nightshade, read-out: Growth inhibition rate
Experimental: as §3, §4

[17] = test system: wild oat (Avena fatua); assay: Herbicidal effect on wild oat (foliar treatment); conditions: Comparative Test 1, wild oat, read-out: Growth inhibition rate
Experimental: as §3, §4

[18] = Comparative Test 2, redroot pigweed, read-out: Growth inhibition rate
[19] = Comparative Test 2, crabgrass, read-out: Growth inhibition rate
[20] = Comparative Test 2, Italian ryegrass, read-out: Growth inhibition rate

Structure (SMILES) | inhibition at 500 g/ha [1, 18] [%] | inhibition at 1000 g/ha [1, 18] [%] | inhibition at 500 g/ha [2, 19] [%] | inhibition at 1000 g/ha [2, 19] [%] | inhibition at 500 g/ha [3] [%] | inhibition at 1000 g/ha [3] [%] | inhibition at 500 g/ha [4] [%] | inhibition at 1000 g/ha [4] [%] | inhibition at 500 g/ha [5] [%] | inhibition at 1000 g/ha [5] [%] | inhibition at 500 g/ha [6] [%] | inhibition at 1000 g/ha [6] [%] | inhibition at 500 g/ha [7] [%] | inhibition at 1000 g/ha [7] [%] | inhibition at 500 g/ha [8] [%] | inhibition at 1000 g/ha [8] [%] | inhibition at 500 g/ha [9] [%] | inhibition at 1000 g/ha [9] [%] | inhibition at 500 g/ha [10] [%] | inhibition at 1000 g/ha [10] [%] | other results
COC(=O)[C@H]1C[C@H](NC(=O)C(F)(F)/C=C/c2cc(C)cc(F)c2)C1 [Aa-9-2] | ≥ 90 | ≥ 90 | ≥ 90 | ≥ 90 | ≥ 90 | ≥ 90 | ≥ 90 | ≥ 90 | ≥ 90 | ≥ 90 | ≥ 90 | ≥ 90 | ≥ 90 | ≥ 90 | 70 to 90 | 70 to 90 | ≥ 90 | ≥ 90 | 70 to 90 | 70 to 90 | inhibition at 500 g/ha ([1]; redroot pigweed, 14th day, read-out: growth inhibition rate): ≥ 70%; inhibition at 500 g/ha ([2]; crabgrass, 14th day, read-out: growth inhibition rate): ≥ 70%; inhibition at 500 g/ha [11]: ≥ 90%; inhibition at 1000 g/ha [11]: ≥ 90%; inhibition at 500 g/ha [12]: ≥ 90%; inhibition at 1000 g/ha [12]: ≥ 90%; inhibition at 500 g/ha [13]: ≥ 90%; inhibition at 1000 g/ha [13]: ≥ 90%; inhibition at 500 g/ha [14]: ≥ 90%; inhibition at 1000 g/ha [14]: ≥ 90%; inhibition at 500 g/ha [15, 20]: ≥ 90%; inhibition at 1000 g/ha [15, 20]: ≥ 90%; inhibition at 500 g/ha ([15]; Italian ryegrass, 14th day, read-out: growth inhibition rate): ≥ 70%; inhibition at 500 g/ha [16]: 50 to 70%; inhibition at 1000 g/ha [16]: 70 to 90%; inhibition at 500 g/ha [17]: ≥ 90%; inhibition at 1000 g/ha [17]: ≥ 90%
CN(C(=O)/C=C/c1ccccc1)C1CCC1 [Compound 4b, reference compound] | < 30 | < 30 | < 30 | < 30 | < 30 | 30 to 50 | < 30 | < 30 | < 30 | < 30 | < 30 | < 30 | < 30 | < 30 | < 30 | < 30 | < 30 | < 30 | < 30 | 30 to 50 | inhibition at 500 g/ha [11]: < 30%; inhibition at 1000 g/ha [11]: < 30%; inhibition at 500 g/ha [12]: < 30%; inhibition at 1000 g/ha [12]: < 30%; inhibition at 500 g/ha [13]: < 30%; inhibition at 1000 g/ha [13]: < 30%; inhibition at 500 g/ha [14]: < 30%; inhibition at 1000 g/ha [14]: < 30%; inhibition at 500 g/ha [15, 20]: < 30%; inhibition at 1000 g/ha [15, 20]: < 30%; inhibition at 500 g/ha [16]: < 30%; inhibition at 1000 g/ha [16]: ≥ 90%; inhibition at 500 g/ha [17]: < 30%; inhibition at 1000 g/ha [17]: < 30%
